The values below come from US20240043435A1, “TYK-2 INHIBITOR” (BEIGENE, LTD., priority 2020, published 2024).

The target of this assay is T1, TYK2-JH2 (aa 575-869, in-house) protein (Homo sapiens, UniProt P29597).
T1 construct: TYK2-JH2 (aa 575-869, in-house) protein; made in house
T1 sequence (P29597 575-869): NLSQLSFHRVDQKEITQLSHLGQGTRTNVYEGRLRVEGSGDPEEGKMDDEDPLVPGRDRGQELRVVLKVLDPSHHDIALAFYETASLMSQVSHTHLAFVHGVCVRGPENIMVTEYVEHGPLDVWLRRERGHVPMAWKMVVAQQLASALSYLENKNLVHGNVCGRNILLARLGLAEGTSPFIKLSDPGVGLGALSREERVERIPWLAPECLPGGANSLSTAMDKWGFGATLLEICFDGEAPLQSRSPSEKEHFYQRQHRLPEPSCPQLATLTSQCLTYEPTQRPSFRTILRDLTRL
The assay is described as follows: TYK2-JH2 biochemical assay (HTRF probe displacement). The class given is binding. The settings on record: Biochemical assay; read-out: TYK2-JH2 IC50. As for the experimental part:
Assay A: TYK2-JH2 Biochemical Assay
Compounds disclosed herein were tested for blocking of TYK2-JH2 (aa 575-869, in-house) protein with its probe in an assay based on Homogeneous Time Resolved Fluorescence. Compound dilution is done according to the following protocol: (1) Prepare 500× compounds solution in DMSO from 500 uM by 5-fold dilution, total 10 doses were included; (2) Prepare 10× compounds solution in an assay buffer containing 20 mM HEPES, pH 7.5, 10 mM MgCl2, 0.005% BSA, 2 mM DTT, 0.015% Brij-35 by transferring 1 μl serial 500× stock solution into 49 μl assay buffer. […] of 0.2 nM recombinant TYK2-JH2 protein was pre-incubated with 1 μl of 10× serial dilution of compounds at room temperature for 0.5 hour. […] The HTRF signals (ex337 nm, em620 nm/665 nm) were read on BMG PHERAstar FS instrument. The inhibition percentage of TYK2 interaction with its probe in presence of increasing concentrations of compounds was calculated based on the ratio of fluorescence at 615 nm to that at 665 nm. The IC50 for each compound was derived from fitting the data to the four-parameter logistic equation by Dotmatics.
With `CCOc1cc(Nc2cc(NC(C)=O)ncc2-c2ccc(C(F)(F)F)cn2)nc(S(C)(=O)=O)c1` [Example F10, N-(4′-((4-ethoxy-6-(methylsulfonyl)pyridin-2-yl)amino)-5-(trifluoromethyl)-[2,3′-bipyridin]-6′-yl)acetamide], the IC50 came to 0.04 nM.

Consider `CC(=O)Nc1cc(Nc2cc(C(F)(F)F)cc(S(C)(=O)=O)c2)c(-c2ccc(F)cn2)cn1` [Example F13, N-(5-fluoro-4′-((3-(methylsulfonyl)-5-(trifluoromethyl)phenyl)amino)-[2,3′-bipyridin]-6′-yl)acetamide], for which the IC50 came to 0.21 nM.

Regarding `CC(=O)Nc1cc(Nc2cc(OC(C)C)cc(S(C)(=O)=O)c2)c(-c2ccc(F)cn2)cn1` [Example F14, N-(5-fluoro-4′-((3-isopropoxy-5-(methylsulfonyl)phenyl)amino)-[2,3′-bipyridin]-6′-yl)acetamide], the IC50 was 0.13 nM.

Take `CC(=O)Nc1cc(Nc2cc(O[C@H]3C[C@H](O)C3)cc(S(C)(=O)=O)c2)c(-c2ccc(F)cn2)cn1` [Example F15, N-(5-fluoro-4′-((3-((trans)-3-hydroxycyclobutoxy)-5-(methylsulfonyl)phenyl)amino)-[2,3′-bipyridin]-6′-yl)acetamide]: the IC50 stood at 0.073 nM.

As for `COCCOc1cc(Nc2cc(NC(C)=O)ncc2-c2ccc(F)cn2)nc(S(C)(=O)=O)c1` [Example F16, N-(5-fluoro-4′-((4-(2-methoxyethoxy)-6-(methylsulfonyl)pyridin-2-yl)amino)-[2,3′-bipyridin]-6′-yl)acetamide], the IC50 turned out to be 0.027 nM.

With `CC(=O)Nc1cc(Nc2cc(OC(C)C)cc(S(C)(=O)=O)n2)c(-c2ccc(F)cn2)cn1` [Example F18, N-(5-fluoro-4′-((4-isopropoxy-6-(methylsulfonyl)pyridin-2-yl)amino)-[2,3′-bipyridin]-6′-yl)acetamide], the IC50 turned out to be 0.052 nM.

With `COc1cc(Nc2cc(NC(C)=O)ncc2-c2ccc(C(C)(C)O)cn2)cc(S(C)(=O)=O)c1` [Example H4, N-(5-(2-hydroxypropan-2-yl)-4′-((3-methoxy-5-(methylsulfonyl)phenyl)amino)-[2,3′-bipyridin]-6′-yl)acetamide], the IC50 was 0.047 nM.

For the compound `CC(=O)Nc1cc(Nc2cc(C(F)(F)F)cc(S(C)(=O)=O)c2)c(-c2ccn(C)n2)cn1` [Example J33, N-(5-(1-methyl-1H-pyrazol-3-yl)-4-((3-(methylsulfonyl)-5-(trifluoromethyl)phenyl)amino)pyridin-2-yl)acetamide], the IC50 is 0.12 nM.

For `CC(=O)Nc1cc(Nc2nc(S(C)(=O)=O)ccc2OC(C)C)c(-c2ccn(C)n2)cn1` [Example J49, N-(4-((3-isopropoxy-6-(methylsulfonyl)pyridin-2-yl)amino)-5-(1-methyl-1H-pyrazol-3-yl)pyridin-2-yl)acetamide], the half-maximal inhibitory concentration (IC50) amounted to 0.13 nM.

As to `CCn1ccc(-c2cnc(NC(C)=O)cc2Nc2cc(C#N)cc(S(C)(=O)=O)c2)n1` [Example M10, N-(4-((3-cyano-5-(methylsulfonyl)phenyl)amino)-5-(1-ethyl-1H-pyrazol-3-yl)pyridin-2-yl)acetamide], the IC50 is 0.099 nM.

For the compound `CCn1ccc(-c2cnc(NC(C)=O)cc2Nc2cc(C(F)(F)F)cc(S(C)(=O)=O)c2)n1` [Example M13, N-(5-(1-ethyl-1H-pyrazol-3-yl)-4-((3-(methylsulfonyl)-5-(trifluoromethyl)phenyl)amino)pyridin-2-yl)acetamide], the IC50 is 0.11 nM.

In the case of `CCn1ccc(-c2cnc(NC(C)=O)cc2Nc2cc(OCC3CC3)cc(S(C)(=O)=O)c2)n1` [Example M16, N-(4-((3-(cyclopropylmethoxy)-5-(methylsulfonyl)phenyl)amino)-5-(1-ethyl-1H-pyrazol-3-yl)pyridin-2-yl)acetamide], the IC50 turned out to be 0.048 nM.

As to `CC(=O)Nc1cc(Nc2cc(C(F)(F)F)cc(S(C)(=O)=O)c2)c(-c2ccn([C@@H]3CCOC3)n2)cn1` [Example M32, (R)-N-(4-((3-(methylsulfonyl)-5-(trifluoromethyl)phenyl)amino)-5-(1-(tetrahydrofuran-3-yl)-1H-pyrazol-3-yl)pyridin-2-yl)acetamide], the 50% inhibitory concentration (IC50) amounted to 0.074 nM.

For `CC(=O)Nc1cc(Nc2cc(OC(C)C)cc(S(C)(=O)=O)n2)c(-c2ccc3nccn3n2)cn1` [Example Q5, N-(5-(imidazo[1,2-b]pyridazin-6-yl)-4-((4-isopropoxy-6-(methylsulfonyl)pyridin-2-yl)amino)pyridin-2-yl)acetamide], the IC50 worked out at 0.065 nM.

As for `CC(=O)Nc1cc(Nc2cc(OCC3COCCO3)cc(S(C)(=O)=O)n2)c(-c2ccc3c(n2)OC(C)(C)CO3)cn1` (stereo not shown) [Example Q27, N-(4-((4-((1,4-dioxan-2-yl)methoxy)-6-(methylsulfonyl)pyridin-2-yl)amino)-5-(3,3-dimethyl-2,3-dihydro-[1,4]dioxino[2,3-b]pyridin-6-yl)pyridin-2-yl)acetamide], the IC50 stood at 0.033 nM.

On to `CC(=O)Nc1cc(Nc2cc(C(C)(C)O)cc(S(C)(=O)=O)n2)c(-c2ccc3c(n2)OC(C)(C)CO3)cn1` [Example Q29, N-(5-(3,3-dimethyl-2,3-dihydro-[1,4]dioxino[2,3-b]yridine-6-yl)-4-((4-(2-hydroxypropan-2-yl)-6-(methylsulfonyl)pyridine-2-yl)amino)pyridine-2-yl)acetamide], for which the IC50 was found to be 0.037 nM.

Turning to `CC(=O)Nc1cc(Nc2cc(C)c(F)c(S(C)(=O)=O)n2)c(-c2ccc3c(n2)OC(C)(C)CO3)cn1` [Example Q30, N-(5-(3,3-dimethyl-2,3-dihydro-[1,4]dioxino[2,3-b]pyridine-6-yl)-4-((5-fluoro-4-methyl-6-(methylsulfonyl)pyridine-2-yl)amino)pyridine-2-yl)acetamide], the IC50 was found to be 0.065 nM.

In the case of `CC(=O)Nc1cc(Nc2cc(N3CCC(C)(O)CC3)cc(S(C)(=O)=O)n2)c(-c2ccc3c(n2)OCC(C)(C)O3)cn1` [Example Q55, N-(5-(2,2-dimethyl-2,3-dihydro-[1,4]dioxino[2,3-b]pyridin-6-yl)-4-((4-(4-hydroxy-4-methylpiperidin-1-yl)-6-(methylsulfonyl)pyridin-2-yl)amino)pyridin-2-yl)acetamide], the half-inhibitory concentration (IC50) was determined as 0.019 nM.

In the case of `CC(=O)Nc1cc(Nc2cc(N3CC(C)(O)C3)cc(S(C)(=O)=O)n2)c(-c2ccc3c(n2)OCC(C)(C)O3)cn1` [Example Q56, N-(5-(2,2-dimethyl-2,3-dihydro-[1,4]dioxino[2,3-b]pyridin-6-yl)-4-((4-(3-hydroxy-3-methylazetidin-1-yl)-6-(methylsulfonyl)pyridin-2-yl)amino)pyrid-in-2-yl)acetamide], the IC50 stood at 0.031 nM.

Regarding `CC(=O)Nc1cc(Nc2cc(N3CCC(C)(O)C3)cc(S(C)(=O)=O)n2)c(-c2ccc3c(n2)OCC(C)(C)O3)cn1` (stereo not shown) [Example Q57, N-(5-(2,2-dimethyl-2,3-dihydro-[1,4]dioxino[2,3-b]pyridin-6-yl)-4-((4-(3-hydroxy-3-methylpyrrolidin-1-yl)-6-(methylsulfonyl)pyridin-2-yl)amino)pyridin-2-yl) acetamide], the 50% inhibitory concentration (IC50) came to 0.031 nM.

With `CC(=O)Nc1cc(Nc2cc(C3CCOCC3)cc(S(C)(=O)=O)n2)c(-c2ccc3c(n2)OCC(C)(C)O3)nn1` [Example Q58, N-(6-(2,2-dimethyl-2,3-dihydro-[1,4]dioxino[2,3-b]pyridin-6-yl)-5-((6-(methylsulfonyl)-4-(tetrahydro-2H-pyran-4-yl)pyridin-2-yl)amino)pyridazin-3-yl)acetamide], the IC50 worked out at 0.097 nM.

Regarding `CC(=O)Nc1cc(Nc2cc(N3CC[C@@H](OCCO)C3)cc(S(C)(=O)=O)n2)c(-c2ccc3c(n2)OCC(C)(C)O3)cn1` [Example Q59, (R)-N-(5-(2,2-dimethyl-2,3-dihydro-[1,4]dioxino[2,3-b]pyridin-6-yl)-4-((4-(3-(2-hydroxyethoxy)pyrrolidin-1-yl)-6-(methylsulfonyl)pyridin-2-yl)amino)pyridin-2-yl) acetamide], the concentration for half-maximal inhibition (IC50) came out at 0.033 nM.

In the case of `CC(=O)Nc1cc(Nc2cc(C3CCN(CC(F)(F)F)CC3)cc(S(C)(=O)=O)n2)c(-c2ccc3c(n2)OCC(C)(C)O3)cn1` [Example Q60, N-(5-(2,2-dimethyl-2,3-dihydro-[1,4]dioxino[2,3-b]pyridin-6-yl)-4-((6-(methylsulfonyl)-4-(1-(2,2,2-trifluoroethyl)piperidin-4-yl)pyridin-2-yl)amino)pyridin-2-yl) acetamide], the IC50 was determined as 0.059 nM.

`CC(=O)Nc1cc(Nc2cc(N3CC[C@H](OCCO)C3)cc(S(C)(=O)=O)n2)c(-c2ccc3c(n2)OCC(C)(C)O3)cn1` [Example Q61, (S)-N-(5-(2,2-dimethyl-2,3-dihydro-[1,4]dioxino[2,3-b]pyridin-6-yl)-4-((4-(3-(2-hydroxyethoxy)pyrrolidin-1-yl)-6-(methylsulfonyl)pyridin-2-yl)amino)pyridin-2-yl)acetamide]: the concentration for half-maximal inhibition (IC50) is 0.022 nM.

For `CC(=O)Nc1cc(Nc2ccc(C3CCOCC3)c(S(C)(=O)=O)n2)c(-c2ccc3c(n2)OCC(C)(C)O3)cn1` [Example Q79, N-(5-(2,2-dimethyl-2,3-dihydro-[1,4]dioxino[2,3-b]pyridin-6-yl)-4-((6-(methylsulfonyl)-5-(tetrahydro-2H-pyran-4-yl)pyridin-2-yl)amino)pyridin-2-yl)acetamide], the IC50 was 0.32 nM.
